Assay results reported in patent US9029419B2, “Use of zinc N-acetyltaurinate” (TRI-INOV, priority 2008, dated 2015).
Where two headings read alike, the source gives them in different places.

Tests used:
ARPE-19 cells [1] = test: Comparative assay No. 1: effective doses of taurine and ZnSO4, ARPE-19 cell proliferation; type: cell-based, human
Protocol: (§1) In the assays hereinafter described, the ARPE-19 human retinal pigmented epithelial cell line was used.
(§2) ARPE-19 cells grown in an appropriate medium [mixture of DMEM [Dulbecco's modified Eagle's medium) and Ham's F12 medium] containing 10% of heat-inactivated fetal calf serum; 2 mM glutamine; 0.1 mM of minimum essential medium; a solution of non-essential amino acids and gentamicin sulfate, in 96-well microplates, were exposed to various concentrations of an aqueous hydrogen peroxide solution (H2O2) being toxic for these cells. The cellular levels of ATP were measured using the commercially available assay which measures ATP production, “ATPLite-M”, manufactured by Perkin Elmer, using a multiplate reader from Perkin Elmer Life Sciences, Boston, Mass. This assay is based on the principle that ATP production is dependent on cell viability and that a decrease or increase in ATP reflects a corresponding alteration in cell viability.
In this assay, the effect of taurine or of N-acetylated taurine and of zinc sulfate on ARPE-19 cell proliferation was compared.

ARPE-19 cells [2] = test: Comparative assay No. 2: cytoprotective effect in oxidizing medium (H2O2); type: cell-based, human; conditions: for protection against oxidative stress (ATP production): then H2O2 700 μM for 24 hours; for effect on the production of ATP by ARPE-19 cells treated and then exposed to H2O2: summary statement
Protocol: The cells were then subjected, for 24 hours, to treatment with aqueous hydrogen peroxide solution at 700 μM.

lipofuscin accumulation = test: Intracellular accumulation of lipofuscin in retina, prostate and hippocampus of aged rats (fluorescence image analysis); type: in vivo, Sprague-Dawley albino rats; conditions: 40 mg/kg per os once a day for 4 weeks, vs control animals (carrier)
Protocol: The activity of ATA-Zn on aging was measured by determining the amount of lipofuscin in certain tissues in aged rats (retina, prostate and hippocampus).
Male Sprague-Dawley albino rats, aged 16 months, were placed in standard plastic cages, in groups of 5, with water and food ad libitum. The living conditions of the animals were the following: day:night light cycle, 12:12 h, constant temperature of 22±2° C. and relative humidity of 60%.
For the chronic treatment, ATA-Zn was administered to the rats, per os, once a day, for 4 weeks, at the dose of 40 mg/kg (n=6). The control animals received only water (carrier) for the same period of time (n=6). 24 hours after the end of the treatment, the rats were anesthetized with equithesin ([…], i.p.) and perfused transcardially with 1% paraformaldehyde and 1.25% glutaraldehyde in a 0.1% sodium cacodylate buffer (pH 7.4) obtained from arsenous anhydride and potassium acetate.
The samples of the tissues taken (retina, prostate and hippocampus) were then cut into small pieces (1 mm^3) on a cryostat and added to a mixture of formaldehyde and glutaraldehyde in a cacodylate buffer for 2 hours. The samples were then mixed with osmium tetroxide, dehydrated in increasing concentrations of acetone and toluene and, finally, embedded into blocks of resin (EPON resin). The pieces of tissues thus processed were examined under an Olympus BX-60 fluorescence microscope.
The fluorescence in all the tissues was quantified using an image analysis system (KS 300; Karl Zeiss). The analysis was carried out by measuring the percentage surface area hidden by the presence of fluorescence and compared with a standard zone of 2000 μm^2 (lipofuscin fluorescence expressed as % surface area relative to the standard zone) using an ×40 objective magnification and a Zeiss Sound Vision digital microscope video camera (total enlargement on the computer screen ×7500). The values measured in the areas with no fluorescence in the pieces of tissues were subtracted, as background noise, from the resulting binary image. […]

ARPE-19 cells [3] = test: Assay 1: effective doses of ATA-Zn and its toxicity, ATP production (ATPLite-M); type: cell-based, human; conditions: 24 hours after addition
Protocol: as §1
(§3) ARPE-19 cells grown in an appropriate medium [mixture of DMEM [Dulbecco's modified Eagle's medium) and Ham's F12 medium] containing 10% of heat-inactivated fetal calf serum; 2 mM glutamine; 0.1 mM of minimum essential medium; a solution of non-essential amino acids and gentamicin sulfate, in 96-well microplates, were exposed to various concentrations of an aqueous hydrogen peroxide solution (H2O2) being toxic for these cells. The cellular levels of ATP were measured using the commercially available assay which measures ATP production, “ATPLite-M”, manufactured by Perkin Elmer, using a multiplate reader from Perkin Elmer Life Sciences, Boston, Mass. […]
The ARPE-19 cells were treated with various concentrations of ATA-Zn (10^−3 to 10^−9 M) dissolved in a carrier consisting of a serum-free culture medium containing 0.01% of DMSO (concentration known not to affect cell viability). The ATP production by the ARPE-19 cells thus treated was determined 24 hours after the addition of ATA-Zn. The ATP production by control cells treated only with the serum-free culture medium containing 0.01% of DMSO (carrier) was also determined.

ARPE-19 cells [4] = test: Assay 2: anti-oxidative stress cytoprotective effect, ATP production after H2O2; type: cell-based, human; conditions: 1.5 hours before H2O2 700 μm
Protocol: as §1
(§4) In order to assess the protective role of ATA-Zn with respect to an oxidative stress of the retinal epithelium, the following experimental model was used.
as §2
(§5) The protective effect of ATA-Zn was assayed by treating the ARPE-19 cells with ATA-Zn and subsequently exposing them to the aqueous hydrogen peroxide solution. Various exposure times and various doses were used. Comparative assays were also carried out. The results of these assays are reported in FIGS. 5 to 9, which are graphs showing the ATP production, expressed as a percentage relative to the ATP production by control cells (having received only the carrier) as a function of the concentrations of H2O2, of ATA-Zn or of the comparative substances.
In this assay, the concentrations of ATA-Zn which induce a significant ATP production via the ARPE-19 cells were used, and then, after 1.5 hours, the cells were subjected to a treatment with H2O2 at the toxic dose of 700 μm.

ARPE-19 cells [5] = test: Assay 3: cytoprotective effect of ATA-Zn on cells subjected to various concentrations of H2O2; type: cell-based, human; conditions: 10^−8 M, one and a half hours before exposure to H2O2
Protocol: as §1, §4, §3
as §5, with “Various exposure times and various doses were used. Comparative assays were also carried out.” left out, “substances. […]” for “substances.”

ARPE-19 cells [6] = test: Comparative assay No. 3: comparison with the known antioxidants DHA, lutein and zeaxanthin; type: cell-based, human
Protocol: as §1, §2
as §5, with “Various exposure times and various doses were used. Comparative assays were also carried out.” left out, “substances. […]” for “substances.”

[7] = Solubility of the prepared product; type: physicochemical; conditions: white powder

solubility in ethanol [7] | solubility in water [7] | Compound | proliferative effect on the ARPE-19 cells (ARPE-19 cells [1]; 2 mM and 10^−8 M) | protection against oxidative stress (ATP production) (ARPE-19 cells [2]; pretreatment) | effect on the production of ATP by ARPE-19 cells treated and then exposed to H2O2 (ARPE-19 cells [2]) | proliferative effect on the ARPE-19 cells (ARPE-19 cells [1]; 30 μM and 10^−8 M) | protection against oxidative stress (ATP production) (ARPE-19 cells [2]; 30 μM pretreatment) | protection against oxidative stress (ATP production) (ARPE-19 cells [2]; 10^−8 M pretreatment) | lipofuscin fluorescence (% surface area) in the hippocampus (lipofuscin accumulation) | lipofuscin fluorescence (% surface area) in the prostate (lipofuscin accumulation) | lipofuscin fluorescence (% surface area) in the retina (lipofuscin accumulation) | ATP production / cell viability (toxicity) (ARPE-19 cells [3]; 10^−3 M) | ATP production / cell viability (ARPE-19 cells [3]; 10^−9 M, 10^−8 M and 10^−7 M) | protection against oxidative stress (ATP production) (ARPE-19 cells [4]; 10^−7 M) | protection against oxidative stress (ATP production) (ARPE-19 cells [4]; 10^−8 M) | protection against oxidative stress (ATP production) (ARPE-19 cells [4]; 10^−9 M) | protection against oxidative stress induced by various concentrations of H2O2 (ATP production) (ARPE-19 cells [5]) | effect on ATP production compared with DHA, lutein and zeaxanthin (ARPE-19 cells [6]) | effect on ATP production compared with DHA, lutein and zeaxanthin (ARPE-19 cells [6]; listed as zinc N-acetyltaurinate)
– | – | NCCS(=O)(=O)O [taurine] | neither zinc sulfate nor taurine at the various concentrations used were capable of inducing a significant proliferative effect | not capable of protecting the cells | no effect | – | – | – | – | – | – | – | – | – | – | – | – | – | –
– | – | O=S(=O)([O-])[O-].[Zn+2] [zinc sulfate] | – | – | no effect | neither zinc sulfate nor taurine at the various concentrations used were capable of inducing a significant proliferative effect | not capable of protecting the cells | protective effect which is less than that of ATA-Zn | – | – | – | – | – | – | – | – | – | – | –
poorly soluble in ethanol | soluble in water | zinc N-acetyltaurinate [ATA-Zn] | – | protect the ARPE-19 cells against oxidative stress | has an effect | – | – | – | significant reduction | significant reduction | significant reduction | toxic | capable of inducing an increase in cell viability | potentiates the toxic effect of H2O2 | capable of protecting the cells against oxidative stress | not effective | capable of protecting the ARPE-19 cells against oxidative stress | effect comparable to the known antioxidants | virtually identical to or even greater than
